According to patent publication US4309425A (priority 1980, dated 1982):

Legend:
[1] = tested on: Pythium; test: Pythium infested soil test, cotton; assay type: in vivo; details: 1.5 kg/ha, 8 days
Description: Pythium infested soil was placed in a 900 cc cup. Compounds of this invention were mixed at a rate of 1.5 kg/ha in a section 2" wide×2" deep×4" long to simulate an in-the-row application. Five cotton seeds were planted in the treated soil. After 8 days, the cotton plants were removed and rated for disease control.

[2] = tested on: organo-phosphorous resistant two-spotted spider mites; test: organo-phosphorous resistant two-spotted spider mites on bean plants, spray, mortality after two days; details: Tetranychus urticae, 48 h, read-out: % Mortality (2 days)
[3] = tested on: bean aphids (Aphis fabae); test: bean aphids on nasturtium leaves, spray; assay type: in vivo; details: 24 hours, read-out: 24 Hours Evaluation (% Kill)
Method: Stems of nasturtium leaves infested with bean aphids (Aphis fabae) were placed in individual vials of water. The leaves were sprayed to run-off with a series of suspensions of N-[N-[2-chloro-5-(trifluoromethyl)phenyl]-N-[2,4-dinitro-6-(trifluoromethyl)-phenyl]aminothio]-N,4-dimethylbenzenesulfonamide. Suspensions were prepared by dissolving 50 mg of the compound in 10 ml of acetone, adding 1 ml of 1% methocel 15, and diluting to volume with Duponol®:water at 1:3000. Evaluations with respect to % kill 24 hours later are set forth below.

[4] = tested on: two-spotted mites; test: two-spotted mites on bean plants, spray, mortality after two days; assay type: in vivo; details: Tetranychus urticae, 48 h, read-out: % Mortality (2 days); for mortality at 0.00025 %: spray concentration .00025%; for mortality at 0.0005 %: spray concentration .0005%; for mortality at 0.001 %: spray concentration .001%
Method: Mortality was evaluated two days after spraying.
Mortality after two days is set forth below.

[5] = tested on: Phytophthora infestans; test: whole plant or invertebrate; assay type: in vivo; details: in Solanum lycopersicum, 96 h, read-out: % control tomato late blight in a residual wash-off test
[6] = tested on: mosquito larvae; test: mosquito larvae test (failure to become adults); assay type: in vivo; details: 27°-30°, continuous light
Method: Twenty-five newly hatched mosquito larvae were placed in 25 ml of distilled water in 4 oz glass jars, and 10 mg diet, consisting of 2 parts liver powder and 1 part brewer's yeast, was added.

[7] = tested on: Rhizopus; test: Rhizopus-corn meal mixture overspray test; details: 168 h, 100 ppm, 20° C., 7 days, read-out: % control Rhizopus
Method: Compounds of this invention were dissolved in acetone in an amount equal to 6% of final volume and then suspended at a concentration of 100 ppm in purified water containing 500 ppm of the surfactant Alkanol® XC (sodium alkyl naphthalene sulfonate). This solution was oversprayed on a Rhizopus-corn meal mixture in 6 cm aluminum cups. The sprayed plates were placed in a closed plastic bag, stored at 20° C. for 7 days, and then rated.
The untreated cups were completely covered with Rhizopus mycelial growth, but the treated cups were mostly free of growth by this disease-causing organism.

[8] = tested on: adult houseflies; test: adult houseflies spray test; assay type: in vivo, housefly; details: Musca domestica; 1% acetone solutions, 24 hours
Description: Twenty adult houseflies were confined in each of several cylindrical stainless steel cages (7.5 cm D×4 cm high) with wire screens of the ends. These were sprayed with 1% acetone solutions of the indicated compounds.

[9] = tested on: adult cotton boll weevils (Anthonomus grandis); test: adult cotton boll weevils spray test; assay type: in vivo; details: 1% acetone solution, 24 hours
Method: Five adult cotton boll weevils (Anthonomus grandis) were confined in a 4-oz. wide mouth jar. These were sprayed with a 1% acetone solution of the indicated compounds. Percent mortality after 24 hours is set forth below.

[10] = tested on: Venturia inaequalis; test: apple scab preventive test; assay type: in vivo; details: 10-12 days
Method: Compounds of this invention are dissolved in acetone in an amount equal to 6% of the final volume and then suspended at a concentration of 20 ppm in purified water containing 25 ppm of the surfactant Alkanol® XC (sodium alkyl naphthalene sulfonate). This suspension is sprayed to the point of run-off on apple seedlings. The following day, the plants are inoculated with a spore suspension of the fungus Venturia inaequalis and incubated in a growth room for 10-12 days. Disease ratings are then made. […] Phytotoxicity in the form of foliar burn was observed on some of the plants in association with disease control.

[11] = tested on: red-legged grasshoppers (Melanoplus femurrubrum); test: red-legged grasshoppers spray test; assay type: in vivo; details: 10 ppm in acetone, 48 hours
Method: Five red-legged grasshoppers (Melanoplus femurrubrum) were confined in each of several cylindrical stainless steel cages (7.5 cm D×4 cm high) with wire screens at the end. These were sprayed with 10 ppm concentration of the indicated compounds in acetone solution. Percent mortality after 48 hours is recorded below.

[12] = tested on: Phytophthora infestans; assay type: in vivo; details: 20 ppm, 4 days
[13] = tested on: brown dog ticks (Rhipicephalus sanguineus); test: brown dog ticks spray test; assay type: in vivo; details: 48 h, 12.5 ppm in acetone, forty eight hours
Method: Four-ounce wide mouth jars, each containing 10 brown dog ticks (Rhipicephalus sanguineus), were sprayed with 12.5 ppm concentration of the indicated compounds in acetone solution. The ticks were confined with caps which were also sprayed. Forty eight hours later, percent mortality was determined.

SMILES	% control Pythium [1] [%]	mortality at 0.0005 % [2] [%]	mortality at 0.001 % [2] [%]	mortality at 0.002 % [2] [%]	mortality at 0.005 % ([3]; spray concentration 0.005%) [%]	mortality at 0.1 % ([3]; spray concentration 0.1%) [%]	mortality at 0.00025 % [4] [%]	mortality at 0.0005 % [4] [%]	mortality at 0.001 % [4] [%]	pest or weed control at 20 ppm [5] [%]	EC50 (concentration at which 50% of the initial larvae fail to become adults) [6] [ppm]	inhibition of growth at 100 ppm [7] [%]	mortality at 1 % [8] [%]	mortality at 1 % [9] [%]	pest or weed control at 20 ppm [10] [%]	mortality at 10 ppm [11] [%]	% control tomato late blight in a preventive test [12] [%]	mortality at 12.5 ppm [13] [%]
Cc1ccc(S(=O)(=O)N(C)SN(c2cc(C(F)(F)F)ccc2Cl)c2c([N+](=O)[O-])cc([N+](=O)[O-])cc2C(F)(F)F)cc1	0	93	97	100	100	100	100	100	100	100	0.00081	–	–	–	–	–	–	–
CCCCN(SN(c1cc(C(F)(F)F)ccc1Cl)c1c([N+](=O)[O-])cc([N+](=O)[O-])cc1C(F)(F)F)S(=O)(=O)c1ccccc1C	–	90	89	100	–	–	100	100	100	–	–	90	100	100	100	–	–	–
CCCCN(SN(c1cc(C(F)(F)F)ccc1Cl)c1c([N+](=O)[O-])cc([N+](=O)[O-])cc1C(F)(F)F)S(=O)(=O)c1ccc(C)cc1	0	–	–	–	–	–	–	–	–	100	–	–	100	100	75	100	100	100
